Tests used:
Format in all cases: in vivo
[1] = system: female Sprague-Dawley rats; experiment: Cold allodynia (ethyl chloride spray) in spinally-injured rats, acute administration
From the text: (§1) In 6 groups of female Sprague-Dawley rats weighting 200 g, photochemically-induced ischemic spinal cord injury was produced according to methods described by Xu et al. Pain, 1992, 48, 279-290. Spinally-injured rats developed a chronic pain syndrome, including marked mechanical and cold allodynia. The rats were injured 3-6 months before the beginning of the experiment.
(§2) Each group of rats was i.p. treated, respectively, with one of the following compounds using one of the above indicated doses: • NO-gabapentin at doses of 20 mg/Kg (55 μmole/Kg), or 60 mg/Kg (167.21 μmole/Kg), or 100 mg/kg (278.7 μmole/Kg), dissolved in saline, single dose, i. p.); • gabapentin at doses of 30 mg/Kg ([…]) or 100 mg/kg ([…]), dissolved in saline, single dose i. p.); • the control group received the vehicle; The response to cold was tested by spray-applying ethyl chloride on the shaved allodynic skin area at time 0 (i.p. injection) and then at 30′, 120′ and 240′. The response was evaluated according to the following score: • 0=no response; • 1=localized response (skin twitch and contraction), no vocalization; • 2=transient vocalization, moderate struggle; • 3=sustained vocalization and aggression.

[2] = system: female Sprague-Dawley rats; experiment: Mechanical allodynia (von Frey hairs, vocalization threshold) in spinally-injured rats, repeated administration; conditions: for vocalization threshold (g) to mechanical stimulation with von Frey hairs: 1 hour after administration
Method: In this experiment the effect of repeated administration of NO-gabapentin was assessed and compared with that of the precursor drug gabapentin in a rat model of neuropathic pain. In 4 groups of female Sprague-Dawley rats weighting 200 g photochemically-induced ischemic spinal cord injury was produced according to methods describe by Xu et al. Pain, 1992, 48, 279-290.
Spinally-injured rats developed a chronic pain syndrome, including marked mechanical and cold allodynia. The rats were injured 3-6 months before the beginning of the experiment. Each of the groups of rats were i.p. treated daily for 10 day, respectively, with 60 mg/kg (167.2 μmole/Kg) of NO-gabapentin and with 30 mg/Kg (175 μmole/Kg) of gabapentin. Controls (two groups) received only the vehicle. Each day the treatment of the animals was made at the same time. During the experiment vocalized thresholds to graded mechanical touch/pressure were tested with von Frey hairs.
During testing, rats were gently restrained in a standing position and the von Frey hair was pushed onto the skin until filament becomes bent. The frequency of stimulation was about 1/s and repeated 5-10 times. The intensity of stimulation (g) which induced consistent vocalization (>75% response rate) is considered as pain threshold. Behavioral testings were carried out before the daily for the control group and 1 hour after administration for the treated groups.

[3] = system: Wistar adult male rats; experiment: Acute toxicity in the diabetic animal (streptozocin)
Method: In 50 Wistar adult male rats weighing 165-190 g, diabetes was induced by injection i.v. of a single dose of streptozocin (65 mg/kg in 1 ml/kg buffer citrate at pH 4.5).
After one week the animals were distributed in three groups of 10 rats each and treated per os for three days with daily doses of 100 mg/kg of gabapentin and NO-gabapentin. The controls were treated only with streptozocin.
Death rate was monitored for 7 days from the last treatment.

[4] = system: Swiss male mice; experiment: "Paw-licking" test (formalin injected in the paw); conditions: for Number "paw licking" %: 1 h before formalin, counted 15 min, percentage of control group
Method: Four groups of Swiss male mice (20-25 g, Charles River) each formed by 10 animals, received by intraperitoneal injection Gabapentin (90 mg/kg) or the compound of formula (XVI) (Example 3), called NO-Gabapentin at the doses of 50 mg/kg, in a saline solution. The control group received the same volume of saline solution. One hour after the administration of the compound solutions, formalin (10 μl) was injected in the paw. In the 15 minutes subsequent to formalin administration, for each animal, the number of times wherein it licked its paw was counted. The analysis was carried out “in blind”.

[5] = system: Wistar adult rats; experiment: Neuropathic pain model, ligature of the right sciatic nerve (Bennett), withdrawal latencies; conditions: 14 days after ligature, percentage of control response
Method: Wistar adult rats weighing about 200 grams were used, in the experimental model described by Bennett G J, Xie Y K, Pain 1988, 33(1): 87-107. The pain response (withdrawal latencies) is determined 14 days after the ligature of the right sciatic nerve. The results obtained are reported in Table 2 and have been expressed as a percentage ratio of the difference between the response from the intact paw and from the injured paw, to the response of the control animals, that have been injected with the carrier and undergone the nerve ligature. The groups were of 10 rats each.

[6] = system: female Sprague-Dawley rats; experiment: Motor performance (combined testing system) in spinally-injured rats
From the text: as §1, §2
The effect of the compounds on motor activity was also evaluated using a combined testing system as described in Hao, J. X. and Xu, X. J., Pain, 1996, 66, 279-286.

## Cl.NCC1(CC(=O)Oc2cccc(CO[N+](=O)[O-])c2)CCCCC1 [NO-gabapentin, 1-(aminomethyl)cyclohexan acetic acid 3-(nitrooxymethyl)phenyl hydrochloride ester]
[1]; 55.7 μmole/kg i.p. single dose, time 0 min
  response to cold stimulation, score (0-3): 2
[1]; 55.7 μmole/kg i.p. single dose, time 30 min
  response to cold stimulation, score (0-3): 2
[1]; 55.7 μmole/kg i.p. single dose, time 120 min
  response to cold stimulation, score (0-3): 2
[1]; 167.2 μmole/kg i.p. single dose, time 0 min
  response to cold stimulation, score (0-3): 2
[1]; 167.2 μmole/kg i.p. single dose, time 30 min
  response to cold stimulation, score (0-3): 1
[1]; 167.2 μmole/kg i.p. single dose, time 120 min
  response to cold stimulation, score (0-3): 1
[1]; 278.7 μmole/kg i.p. single dose, time 0 min
  response to cold stimulation, score (0-3): 2
[1]; 278.7 μmole/kg i.p. single dose, time 30 min
  response to cold stimulation, score (0-3): 1
[1]; 278.7 μmole/kg i.p. single dose, time 120 min
  response to cold stimulation, score (0-3): 1
[1]; 278.7 μmole/kg i.p. single dose, time 240 min
  response to cold stimulation, score (0-3): 1
[1]; 60 mg/kg (167.21 μmole/Kg) i.p.
  duration of significant effect on cold allodynia: 120 min
[1]; 100 mg/kg (278.7 μmole/Kg) i.p.
  duration of significant effect on cold allodynia: 240 min
[1]; acute administration, 20, 60 or 100 mg/kg i.p.
  effect on cold allodynia, in words: alleviated in a dose-dependent way cold allodynia
[2]; 167.2 μmole/kg i.p. daily, Day 1
  vocalization threshold (g) to mechanical stimulation with von Frey hairs: 100 g
[2]; 167.2 μmole/kg i.p. daily, Day 2
  vocalization threshold (g) to mechanical stimulation with von Frey hairs: 200 g
[2]; 167.2 μmole/kg i.p. daily, Day 4
  vocalization threshold (g) to mechanical stimulation with von Frey hairs: 400 g
[2]; 167.2 μmole/kg i.p. daily, Day 6
  vocalization threshold (g) to mechanical stimulation with von Frey hairs: 90 g
[2]; 60 mg/kg (167.2 μmole/Kg) i.p. daily
  maintenance of significant effect on mechanical allodynia, in words: a significant effect was maintained up to day 6
[2]; 60 mg/kg (167.2 μmole/Kg) i.p. daily for 10 day
  effect on mechanical allodynia, in words: alleviated mechanical allodynia following the first administration
[3]; diabetic animals, 100 mg/kg per os for three days
  death rate with respect to animals treated with gabapentin: less than half
[4]; 50 mg/kg i.p.
  Number "paw licking" %: 70%
[4]; NO-gabapentin 50 mg/kg vs Gabapentin 90 mg/kg i.p.
  inhibition of "paw-licking" compared with starting drug, in words: more active than the starting drug

## CC(=O)Oc1ccccc1C(=O)Oc1cccc(CO[N+](=O)[O-])c1 [NO-ASA, 2-acetylsalicylic acid (3-nitrooxymethyl)phenyl ester]
[5]; NO-ASA 100 mg/Kg p.o.
  response %: 82%

## NCC1(CC(=O)O)CCCCC1 [Gabapentin]
[1]; 175 μmole/kg i.p. single dose, time 0 min
  response to cold stimulation, score (0-3): 2
[1]; 175 μmole/kg i.p. single dose, time 30 min
  response to cold stimulation, score (0-3): 2
[1]; 175 μmole/kg i.p. single dose, time 120 min
  response to cold stimulation, score (0-3): 2
[1]; 175 μmole/kg i.p. single dose, time 240 min
  response to cold stimulation, score (0-3): 2
[1]; 30 mg/Kg (175 μmole/Kg) i.p.
  antiallodynic effect (cold), in words: did not produce a significant antiallodynic effect
[2]; 175 μmole/kg i.p. daily, Day 1
  vocalization threshold (g) to mechanical stimulation with von Frey hairs: 5 g
[2]; 175 μmole/kg i.p. daily, Day 2
  vocalization threshold (g) to mechanical stimulation with von Frey hairs: 6 g
[2]; 175 μmole/kg i.p. daily, Day 4
  vocalization threshold (g) to mechanical stimulation with von Frey hairs: 70 g
[2]; 175 μmole/kg i.p. daily, Day 6
  vocalization threshold (g) to mechanical stimulation with von Frey hairs: 90 g
[2]; 30 mg/Kg (175 μmole/Kg) i.p. daily for 10 day
  effect on mechanical allodynia, in words: did not produce a significant effect up to the second day
[2]; gabapentin 30 mg/Kg vs NO-gabapentin 60 mg/kg i.p. daily
  effect on mechanical allodynia compared with NO-gabapentin, in words: the effect was lower than that of NO-gabapentin
[3]; 100 mg/kg per os daily for three days, diabetic rats, monitored 7 days from last treatment
  lethality %: 50%
[4]; 90 mg/kg i.p.
  Number "paw licking" %: 80%
[6]; 175 μmole/kg i.p., time 0 min
  motor performance (score): 20
[6]; 175 μmole/kg i.p., time 30 min
  motor performance (score): 20
[6]; 175 μmole/kg i.p., time 120 min
  motor performance (score): 20
[6]; 175 μmole/kg i.p., time 240 min
  motor performance (score): 20
[6]; 584 μmole/kg i.p., time 0 min
  motor performance (score): 15
[6]; 584 μmole/kg i.p., time 30 min
  motor performance (score): 30
[6]; 584 μmole/kg i.p., time 120 min
  motor performance (score): 30
[6]; 584 μmole/kg i.p., time 240 min
  motor performance (score): 25
[6]; 100 mg/kg (584 μmole/Kg) i.p.
  effect on motor activity, in words: induced motor impairment and sedation

## CN(C)CCCN1c2ccccc2CCc2ccc(Cl)cc21 [Clomipramine, clomipramine]
[5]; clomipramine 10 mg/kg i.p.
  response %: 72%

Source: patent US7812039B2, “Drugs for chronic pains” (Nicox S.A., priority 2001, dated 2010)
